Tested on: NO production in LPS-stimulated RAW 264.7 macrophage cells
Experiment: Inhibition of nitric oxide (NO) production in LPS-stimulated murine macrophages (RAW 264.7), Griess reagent
Type: cell-based
Conditions: 3 h pre-treatment, then 5 ng/ml LPS overnight; FO 15 μM, DIM 15 μM, BC-concentrated TQ 10 μM; FIG. 3
Procedure: These two different BC preparations were then tested for their ability to inhibit NO production, in accordance with the method described hereinbelow in Example 4.
BC-concentrated TQ (obtained from TriNutra. Ness Ziona, Israel), Omega-3 oil (fish oil—FO) and Diindolylmethane (DIM) were tested on a macrophage murine cellular system (RAW 264.7) before stimulation with Lipopolysaccharide (LPS), an endotoxin which induces a strong response from normal animal immune systems.
Cells were thawed, grown and managed according to standard protocols.
On Day 0, cells were seeded in 6-well plates at concentrations of 6×10^5. Volume of medium per well was 2 ml. Cells were seeded in triplicates for each treatment and for each control.
Culture Medium • 10% FCS, 1% Penicillin-Streptomycin Solution, 2% Glutamine 2% were added to DMEM (final volume −500 ml) and filtered. Medium was kept at 2-8° C. until use.
10 mg LPS was dissolved in 10 ml sterile water aliquoted and kept at −20° C.
Before use 1 aliquot was defrosted and diluted in culture media to final concentration of 5 ng/ml.
MW of Fish oil 300 g/mol.
Test items were dissolved in 100% ethanol to form 100 mM concentration.
Further dilutions were made in culture medium. 10% of test item in concentration×10 was added to each well according to study plan.
Stock solution (100 mM) was prepared in 100% DMSO. […]

SMILES: c1ccc2c(Cc3c[nH]c4ccccc34)c[nH]c2c1 [DIM, 3,3′-Diindolylmethane]
- inhibition of NO production when tested separately: caused inhibition of NO production

Reference: patent US11426365B2, “Compositions comprising thymoquinone and omega-3 fatty acids” (TRINUTRA LTD., priority 2017, dated 2022)
